Results from US8933147B2, “Anti-microbial dental impression material” (3M Innovative Properties Company, priority 2005, dated 2015).

Assays:
salivary microorganisms = assay: Laboratory model of impression taking: material set against filters loaded with stimulated human saliva, rinsed, remaining growth on agar; format: cell-based; design: key: confluent growth, +++; many colonies, ++; few colonies, +; no growth, −; settings: Impregum Garant L DuoSoft
Procedure: (§1) A laboratory system was worked out that models the clinical procedure of impression taking with concomitant contamination of the material, the removal of the material from the mouth and the subsequent cleaning by a brief rinse under tap water. The remaining contamination was determined by microbiological methods:
(§2) Impression material was applied into sterile Petri dishes. Filters loaded with Streptococcus mutans (DSM 20523) or stimulated human saliva were contacted with the material during setting. A Strep. mutans concentration of approx. 5E9 CFU/ml was chosen which is similar to the microorganismsl number found salviva. After setting, the material was removed from the contaminated filter and briefly rinsed with sterile water.
(§3) Remaining microorganisms were transferred to agar plates and the plates were incubated anaerobically at 37° C. to allow for growth of surviving microorganisms. Microorganisms growth was recorded as confluent growth, +++; many colonies, ++; few colonies, +; no growth, −.

[1] = system: Streptococcus mutans (DSM 20523); assay: Laboratory model of impression taking: material set against filters loaded with Streptococcus mutans, rinsed, remaining growth on agar; format: cell-based; design: key: confluent growth, +++; many colonies, ++; few colonies, +; no growth, −; settings: Impregum Garant L DuoSoft
Procedure: as §1, §2, §3

[2] = Chlorhexidine 1.5 % in cured paste
[3] = Chlorhexidine 3.6 % in cured paste

## chlorhexidine diacetate hydrate [CHX diacetate hydrate]
Salivary microorganisms; [2]
  Growth of salivary microorganisms (initial conc. 5E7 CFU/ml): −
Salivary microorganisms; [3]
  Growth of salivary microorganisms (initial conc. 5E7 CFU/ml): −
[1]; Chlorhexidine 0.6-0.7 % in cured paste
  Growth of S. mutans (initial conc. 5E9 CFU/ml): −
[1]; Chlorhexidine 0.8 % in cured paste
  Growth of S. mutans (initial conc. 5E9 CFU/ml): −
[1]; [2]
  Growth of S. mutans (initial conc. 5E9 CFU/ml): −
[1]; [3]
  Growth of S. mutans (initial conc. 5E9 CFU/ml): −
[1]; Chlorhexidine <0.2 % in cured paste
  Growth of S. mutans (initial conc. 5E9 CFU/ml): +++
